Experiments:
human neutrophils = assay: Neutrophil oxidative burst, PMA-stimulated, lucigenin chemiluminescence; format: cell-based; conditions: human neutrophils in vitro, PMA stimulus
Method: (§1) Isolation of neutrophils: Neutrophils were isolated from 30 mL freshly drawn heparinized whole blood, after dextran sedimentation of erythrocytes for 30 min. The leucocyte rich plasma was layered over an equal volume of Percoll (Sigma) and centrifuged at 400×g for 15 min. Erythrocytes, contaminating the neutrophil pellet, were destroyed by osmotic lysis with 0.87% NH4Cl (pH 7.0). Neutrophils were washed with PBS (pH 7.1) and centrifuged at 200×g for 10 min. Cells were resuspended in fresh HBS (containing 0.8 g NaCl, 0.4 g KCl, 0.06 g Na2HPO4×2 H2O, 0.06 g KH2PO4, 0.1 g MgSO4×7H2O and 1 g glucose in 1000 mL of distilled water; pH adjusted to 7.4 by 7% NaHCO3) and counted before use.
Measurement of neutrophil oxidative burst: Production of reactive oxygen species by neutrophils was recorded by chemiluminescent analysis. Chemiluminescence measurements were performed with Bio-Orbit 1251 Luminometer connected to a personal computer with special programs for the assays (Bio-Orbit, Turku, Finland). The protocol for each assay included automatic pipetting of the appropriate reagent that initiated the reaction in all cuvettes. Six or twelve samples were analyzed simultaneously, depending on the assay. Disposable plastic cuvettes were used throughout.
One millilitre of cell suspension (final cell count 10^6 cells/mL) was placed in plastic cuvettes, and the level of resting chemiluminescence was recorded before addition of the stimulus; production of reactive oxygen by neutrophils (oxidative burst) was stimulated by addition of phorbol-myristate-acetate (PMA). The buffer (HBS, pH 7.4) was pipetted in a volume of 0.930 mL in the luminometer cuvette. Test compounds were added to incubation mixtures in a small volume (2% of total incubation volume) of ethanol. […] Fifty microliters of 5 mM lucigenin was added, and the reaction was initiated by 0.020 mL of 0.1 mM PMA at 37° C. The chemiluminescence was measured for about 45 min at 1 min cycles and the area under curve (integral) was calculated. […] Based on these experiments, a IC50-value (concentration that under these circumstances produced a 50% inhibition of neutrophil oxidative burst) was determined.

Myeloperoxidase = biological target: T1, Myeloperoxidase (Homo sapiens, UniProt P05164); assay: Myeloperoxidase activity, tetramethylbenzidine oxidation; format: biochemical; conditions: human neutrophils in vitro
T1 construct: And Myeloperoxidase Activity Of Human Neutrophils In Vitro; endogenous in cells; host or cells: human neutrophils isolated from freshly drawn heparinized whole blood
T1 sequence (P05164 279-745 limits assumed): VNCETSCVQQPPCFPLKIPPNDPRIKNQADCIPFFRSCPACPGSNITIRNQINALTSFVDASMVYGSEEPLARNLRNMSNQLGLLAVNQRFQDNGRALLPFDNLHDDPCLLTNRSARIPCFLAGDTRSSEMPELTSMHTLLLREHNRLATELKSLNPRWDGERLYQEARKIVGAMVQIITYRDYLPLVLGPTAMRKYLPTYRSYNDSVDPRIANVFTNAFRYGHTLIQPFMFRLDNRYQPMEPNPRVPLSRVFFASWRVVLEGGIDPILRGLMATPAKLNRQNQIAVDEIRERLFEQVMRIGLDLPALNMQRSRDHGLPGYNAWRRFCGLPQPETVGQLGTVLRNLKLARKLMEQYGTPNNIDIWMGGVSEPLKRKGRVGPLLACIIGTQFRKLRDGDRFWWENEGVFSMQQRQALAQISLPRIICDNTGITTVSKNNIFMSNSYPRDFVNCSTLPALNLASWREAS
T1 sequence (P05164 165-273 limits assumed): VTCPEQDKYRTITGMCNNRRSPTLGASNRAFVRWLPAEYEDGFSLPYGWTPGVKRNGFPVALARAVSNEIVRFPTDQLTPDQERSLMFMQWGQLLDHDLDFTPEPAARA
Method: as §1
Myeloperoxidase activity: Myeloperoxidase activity was determined by the method of Suzuki et al. (Suzuki, K., Ota, H., Sasagawa, S., Sakatoni, T., Fujikura, T., Ann Biochem 132:345–352, 1983) in which the enzyme catalyzes the oxidation of 3,3′,5,5′-tetramethylbenzidine by H2O2 to yield a blue chromogen with a maximum wavelength of 655 nm. Studies on myeloperoxidase inhibition in vitro were performed by adding test compounds to incubation mixtures in a small volume (2% of incubation volume) of ethanol. […] Based on these experiments, a IC50-value (concentration that under these circumstances produced a 50% inhibition of myeloperoxidase activity) was determined.

[1] = test system: Fas receptor on Jurkat cells; assay: Fas receptor surface (FasR) expression, immunostaining; format: cell-based, human; conditions: 50 or 100 μM, versus untreated control
Method: Effect of lignans on Fas receptor surface (FasR) expression: The experiment was performed essentially as described in the literature (Brunner et al., Nature 373, 441–443, 1995). The surface expression of the FasR was measured by immunostaining alive Jurkat cells with an monoclonal anti-FasR antibody (Medical Biological Laboratories Co. Ltd, Japan, clone CH-11) and an anti-mouse antibody labelled with FITC (Alexis Biochemicals Ltd, USA) according to manufacturers instructions. The fluorescence intensity equals the amount of antibody bound to the FasR on the cell membrane.

Monocytes [2] = assay: LPS-induced TNF-α production by monocytes, ELISA; format: cell-based, human; conditions: 100 μM, 24 h pre-incubation, LPS 1 μg/ml for 48 h; IL-10 100 U/ml
Method: Monocytes were isolated from human peripheral blood mononuclear cells by magnetic sorting. The cells were pre-incubated with the lignans matairesinol (as a reference compound) and enterolactone (1–100μM) or interleukin 10 (IL-10) (100 U/ml) for 24 hours before addition of LPS (1 μg/ml) into cell culture. After additional 48 hours the levels of TNF- from culture supernatants were measured by ELISA.

Monocytes [3] = conditions: 1200 IU per day for 8 weeks, healthy volunteers; cited from earlier work
mononuclear cells = conditions: 6.25 mg daily for 1 week; cited from earlier work
neutrophils = conditions: 6.25 mg daily for 1 week; cited from earlier work

SMILES	IC50 (Myeloperoxidase) [µM]	Fas surface expression [1]	IC50 (human neutrophils; Neutrophil) [µM]	also measured
CN(C)CCOc1ccc(/C(=C(/CCCl)c2ccccc2)c2ccc(O)cc2)cc1 [4-OH-toremifene, reference compound]	54	–	–	IC50 (human neutrophils): 1.7 µM
COc1cc(CC2C(=O)OCC2C(O)c2ccc(O)c(OC)c2)ccc1O (stereo not shown) [Hydroxymatairesinol, hydroxymatairesinol]	6.8	elevated level of Fas protein	5.3	–
COc1cc(C[C@H]2COC(=O)[C@@H]2Cc2ccc(O)c(OC)c2)ccc1O [Matairesinol, matairesinol]	44.5	elevated level of Fas protein	11	LPS-induced TNF-α production compared with positive control IL-10 (Monocytes [2]): at least as effective
CC(=O)C(=Cc1cc(O)c(O)c([N+](=O)[O-])c1)C(C)=O [Nitecapone, nitecapone, reference compound]	2.3	–	7.5	–
Cc1c(C)c2c(c(C)c1O)CC[C@@](C)(CCC[C@H](C)CCC[C@H](C)CCCC(C)C)O2 [alpha-tocopherol]	–	–	–	decrease in reactive oxygen production by monocytes (Monocytes [3]): 50%–60
COc1ccccc1OCCNCC(O)COc1cccc2[nH]c3ccccc3c12 (stereo not shown) [carvedilol]	–	–	–	decrease of reactive oxygen production by mononuclear cells (mononuclear cells): 62%; decrease of reactive oxygen production by neutrophils (neutrophils): 59%
O=C1OC[C@H](Cc2cccc(O)c2)[C@H]1Cc1cccc(O)c1 [enterolactone]	–	elevated level of Fas protein	–	LPS-induced TNF-α production compared with positive control IL-10 (Monocytes [2]): at least as effective

From patent publication US7008666B2, “Method of inhibiting overactivity of phagocytes or lymphocytes in an individual” (Hormos Nutraceutical Oy Ltd., priority 2001, dated 2006)
